Assay results: patent publication US20090142330A1, “Use of inactive-plasmin to treat chronic inflammatory disease and tumors” (The Government of the United States of America as …, priority 2007, published 2009)

System: MMP-1 production by monocytes
Assay: MMP-1 protein in monocyte conditioned media, Western blot
Assay type: cell-based, human
From the text: Reagents. High molecular weight urokinase plasminogen activator (HMW-uPA), low molecular weight uPA (LMW-uPA), amino-terminal fragment-uPA (ATF-uPA) and α2-antiplasmin were obtained from American Diagnostica Inc. (Stamford, Conn.). […] LPS Escherichia coli 05:B55 was purchased from Sigma-Aldrich (St. Louis, Mo.). ERK1/2/phospho-ERK1/2 and p38/phospho-p38 antibodies were from Cell Signaling Technology (Beverly, Mass.). MMP-1 antibodies used were rabbit polyclonal antibodies against MMP-1 (provided by Dr. Henning Birkedal-Hansen, NIDCR/NIH) and a mouse anti-human MMP-1 monoclonal antibody (Chemicon International, Inc., Temecula, Calif.). Rabbit anti-COX-2 antibodies were obtained from Cayman Chemical Company (Ann Arbor, Mich.) and mouse anti-β-actin antibodies were from Chemicon International, Inc., Temecula, Calif.). Purification and culture of human monocytes. Human peripheral blood cells were obtained by leukapheresis of non-disease subjects. The monocyte fraction was purified by counter-flow centrifugal elutriation as previously described (Wahl et al., Cell Immunol. 85: 373-383, 1984; and Wahl et al., “In Current Protocols in Immunology,” eds. John Wiley & Sons, Inc. NY. Vol. 2: 7.6A.1-7.6A.10., 2005) and contained greater than 90% monocytes as determined by morphology and flow cytometry. Monocytes were cultured in serum-free Dulbecco Modified Eagle's Medium (DMEM; Cambrex, Walkersville, Md.) supplemented with 2 mM L-glutamine (Mediatech, Herndon, Va.) and 10 μg/ml gentamycin (Cambrex, Walkersville, Md.). Western blot analysis of MMP-1, MAPKs and COX-2. For MMP-1 determination, purified monocytes were cultured at a density of 5×10^6/ml of DMEM in 12 well polystyrene plates (Corning Incorporated Life Sciences, Lowell, Mass.). After 36 to 48 hours of treatment with reagents, the conditioned media were centrifuged and collected. Bovine serum albumin (BSA; 40 μg/ml) was added to the culture supernatants prior to the precipitation of the proteins with cold ethanol (final concentration, 60%) for at least 15 min at −70° C. The proteins were pelleted by microcentrifuging at 20,800×g for 12 min, washed with ethanol, and lyophilized by rotary evaporation. The lyophilized proteins were resuspended in sodium dodecyl sulfate (SDS)-Laemmli buffer [500 mM Tris-HCl (pH 6.8)/10% SDS/0.01% bromophenol-blue/20% glycerol], reduced with 5% β-mercaptoethanol, heated for 4 min at 100° C., and electrophoresed on a 10 or 12% Tris-glycine gel in SDS running buffer [25 mM Tris-HCl (pH 8.3)/192 mM glycine/[…]]. The proteins were transferred onto 0.45 μm nitrocellulose in a buffer containing 25 mM Tris-HCl (pH 8.3)/192 mM glycine/20% methanol and blocked with 50 mM Tris-HCl (pH 7.5)/150 mM NaCl (TBS) containing 5% nonfat dry milk for at least 1 hour. The blots were then incubated overnight with antibodies against MMP-1.
Western blots for MMP-1, MAPKs and COX-2 were incubated overnight with primary antibodies, washed and analyzed by the addition of Alexa Fluor 680 goat anti-rabbit or Alexa Fluor 750 goat anti-mouse antibodies (Molecular Probes® Inc., Eugene, Oreg.) and the infrared fluorescence detected with the Odyssey infrared imaging system (LI-COR, Lincoln, Nebr.). Densitometry analysis of the bands on the Western blots was determined with the LI-COR software analysis program or the ImageQuant software analysis program (Amersham Biosciences, Piscataway, N.J.).

In the case of plasmin, the “protein levels of MMP-1” value (LPS (25 ng/ml) stimulated monocytes, indicated concentrations, FIG. 1A / 2B) is reported as “dose-dependent increase” and the “induction of MMP-1 protein” value (unstimulated (control) monocytes, no LPS) is reported as “did not induce MMP-1”.
